The values below come from patent US10759813B2, “Neprilysin inhibitors” (THERAVANCE BIOPHARMA R&D IP, LLC, priority 2010, dated 2020).

For orientation: pKi means the negative decadic logarithm of the Ki, by convention in mol/L. As a reminder, the Ki is the dissociation constant of the complex between target and ligand, obtained from inhibition or displacement.

The structures appear in SMILES notation.

The target of the test is human neprilysin (EC 3.4.24.11; NEP) (Homo sapiens (Human), UniProt P08473). In words: In vitro enzyme inhibition assay at human NEP (fluorogenic peptide substrate). In kind it is biochemical. Particulars: pKi values at human NEP, recombinant human NEP. In outline: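 Recombinant human NEP preincubated 30 min at 37 °C with compound (10 μM down to pM), then 10 μM Mca-D-Arg-Arg-Leu-Dap-(Dnp)-OH in 50 mM HEPES pH 7.5, 100 mM NaCl, 0.01% Tween-20, 10 μM ZnSO4. Stopped after 20 min with acetic acid; fluorescence Ex320/Em405; Ki by nonlinear fit, reported as pKi.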
Chain of human neprilysin (EC 3.4.24.11; NEP) (P08473 52-750): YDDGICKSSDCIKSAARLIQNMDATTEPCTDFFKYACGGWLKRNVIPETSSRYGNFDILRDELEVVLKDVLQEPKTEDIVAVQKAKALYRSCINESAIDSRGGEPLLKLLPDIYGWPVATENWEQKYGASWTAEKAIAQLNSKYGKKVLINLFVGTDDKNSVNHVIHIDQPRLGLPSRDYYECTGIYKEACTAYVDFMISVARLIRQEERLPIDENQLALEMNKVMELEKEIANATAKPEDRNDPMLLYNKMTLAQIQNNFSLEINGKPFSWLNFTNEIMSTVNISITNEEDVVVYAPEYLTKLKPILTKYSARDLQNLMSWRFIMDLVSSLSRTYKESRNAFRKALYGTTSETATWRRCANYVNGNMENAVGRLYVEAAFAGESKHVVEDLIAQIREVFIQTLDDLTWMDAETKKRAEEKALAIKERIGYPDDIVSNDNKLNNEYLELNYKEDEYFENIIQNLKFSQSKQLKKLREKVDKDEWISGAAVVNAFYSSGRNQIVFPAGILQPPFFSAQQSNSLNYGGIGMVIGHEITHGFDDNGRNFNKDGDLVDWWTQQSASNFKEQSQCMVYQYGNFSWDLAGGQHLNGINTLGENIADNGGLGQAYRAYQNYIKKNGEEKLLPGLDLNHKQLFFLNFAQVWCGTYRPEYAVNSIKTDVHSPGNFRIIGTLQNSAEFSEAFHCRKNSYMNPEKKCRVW
Turning to `O=C(N[C@H](Cc1ccc(-c2ccccc2)cc1Cl)C[C@@H](O)C(=O)O)c1nn(-c2cccc(Cl)c2)c(=O)[nH]1` [Example 20-3, (2R,4R)-5-(3-Chloro-biphenyl-4-yl)-4-{[1-(3-chloro-phenyl)-5-oxo-4,5-dihydro-1H-[1,2,4]triazole-3-carbonyl]-amino}-2-hydroxy-pentanoic acid], the pKi is no less than 9.0.
Turning to `O=C(N[C@H](Cc1ccc(-c2ccccc2)cc1Cl)C[C@@H](O)C(=O)O)c1nn(-c2ccccc2)c(=O)[nH]1` [Example 20-4, (2R,4R)-5-(3-Chloro-biphenyl-4-yl)-2-hydroxy-4-[(5-oxo-1-phenyl-4,5-dihydro-1H-[1,2,4]triazole-3-carbonyl)-amino]-pentanoic acid], the pKi is recorded as no less than 9.0.
The same measure, in the same setting: in the case of `CN(C)C(=O)c1cc(C(=O)N[C@H](Cc2ccc(-c3ccccc3)cc2Cl)C[C@@H](O)C(=O)O)[nH]n1` [Example 20-5, (2R,4R)-5-(3-Chloro-biphenyl-4-yl)-4-[(5-dimethylcarbamoyl-2H-pyrazole-3-carbonyl)-amino]-2-hydroxy-pentanoic acid] it was no less than 9.0; in that of `COCCN(C)C(=O)c1cc(C(=O)N[C@H](Cc2ccc(-c3ccccc3)cc2Cl)C[C@@H](O)C(=O)O)[nH]n1` [Example 20-6, (2R,4R)-5-(3-Chloro-biphenyl-4-yl)-2-hydroxy-4-({5-[(2-methoxy-ethyl)-methyl-carbamoyl]-2H-pyrazole-3-carbonyl}-amino)-pentanoic acid], no less than 9.0; in that of `CC(=O)c1cc(C(=O)N[C@H](Cc2ccc(-c3ccccc3)cc2Cl)C[C@@H](O)C(=O)O)[nH]n1` [Example 20-7, (2R,4R)-4-[(5-Acetyl-2H-pyrazole-3-carbonyl)-amino]-5-(3-chloro-biphenyl-4-yl)-2-hydroxy-pentanoic acid], no less than 9.0.
On the same count and under the same terms, to `O=C(N[C@H](Cc1ccc(-c2ccccc2)cc1Cl)C[C@@H](O)C(=O)O)c1cc(-c2cccnc2)n[nH]1` [Example 20-8, (2R,4R)-5-(3-Chloro-biphenyl-4-yl)-2-hydroxy-4-[(5-pyridin-3-yl-2H-pyrazole-3-carbonyl)-amino]-pentanoic acid] belongs no less than 9.0.
For `O=C(N[C@H](Cc1ccc(-c2ccccc2)cc1Cl)C[C@@H](O)C(=O)O)c1cc(-c2ccccn2)n[nH]1` [Example 20-9, (2R,4R)-5-(3-Chloro-biphenyl-4-yl)-2-hydroxy-4-[(5-pyridin-2-yl-2H-pyrazole-3-carbonyl)-amino]-pentanoic acid], the Ki is 1.26 to 10 nM.
As to `O=C(N[C@H](Cc1ccc(-c2cccc(Cl)c2)cc1Cl)C[C@@H](O)C(=O)O)c1cnn[nH]1` [Example 21-1, (2R,4R)-5-(3,3′-Dichlorobiphenyl-4-yl)-2-hydroxy-4-[(3H-[1,2,3]triazole-4-carbonyl)-amino]-pentanoic acid], the pKi is no less than 9.0.
On to `COCc1cc(C(=O)N[C@H](Cc2ccc(-c3cccc(Cl)c3)cc2Cl)C[C@@H](O)C(=O)O)[nH]n1` [Example 21-2, (2R,4R)-5-(3,3′-Dichloro-biphenyl-4-yl)-2-hydroxy-4-[(5-methoxymethyl-2H-pyrazole-3-carbonyl)-amino]-pentanoic acid], for which the pKi is on record as no less than 9.0.
Same read-out and setting: to `O=C(N[C@H](Cc1ccc(-c2cc(Cl)ccc2F)cc1)C[C@@H](O)C(=O)O)c1ccc2nnn(O)c2c1` [Example 22, (2R,4R)-5-(5′-Chloro-2′-fluorobiphenyl-4-yl)-2-hydroxy-4-[(3-hydroxy-3H-benzotriazole-5-carbonyl)-amino]-pentanoic Acid] belongs no less than 9.0; to `Cc1cccc(-c2ccc(C[C@@H](C[C@H](O)C(=O)O)NC(=O)c3ccc4nnn(O)c4c3)cc2)c1` [Example 23-1, (2S,4S)-2-Hydroxy-4-[(3-hydroxy-3H-benzotriazole-5-carbonyl)-amino]-5-(3′-methyl-biphenyl-4-yl)-pentanoic acid], no less than 9.0; to `COc1ccccc1-c1ccc(C[C@@H](C[C@H](O)C(=O)O)NC(=O)c2ccc3nnn(O)c3c2)cc1` [Example 23-3, (2S,4S)-2-Hydroxy-4-[(3-hydroxy-3H-benzotriazole-5-carbonyl)-amino]-5-(2′-methoxy-biphenyl-4-yl)-pentanoic acid], no less than 9.0.
`O=C(N[C@@H](Cc1ccc(-c2cc(Cl)ccc2Cl)cc1)C[C@H](O)C(=O)O)c1ccc2nnn(O)c2c1` [Example 23-4, (2S,4S)-5-(2′,5′-Dichlorobiphenyl-4-yl)-2-hydroxy-4-[(3-hydroxy-3H-benzotriazole-5-carbonyl)-amino]-pentanoic acid]: the pKi was no less than 9.0.
On the same count and under the same terms, to `O=C(N[C@@H](Cc1ccc(-c2cc(O)cc(Cl)c2)cc1)C[C@H](O)C(=O)O)c1ccc2nnn(O)c2c1` [Example 23-8, (2S,4S)-5-(3′-Chloro-5′-hydroxy-biphenyl-4-yl)-2-hydroxy-4-[(3-hydroxy-3H-benzotriazole-5-carbonyl)-amino]-pentanoic acid] belongs no less than 9.0; to `CC(C)(c1ccc(-c2ccccc2)cc1)[C@H](C[C@@H](O)C(=O)O)NC(=O)c1cc(C(=O)O)n[nH]1` [Example 24, 5-[(S)-2-Biphenyl-4-yl-1-((R)-2-carboxy-2-hydroxy-ethyl)-2-methyl-propylcarbamoyl]-1H-pyrazole-3-carboxylic Acid], no less than 9.0.
As for `CC(C)(c1ccc(-c2ccccc2)cc1)[C@H](C[C@@H](O)C(=O)O)NC(=O)c1c[nH]nn1` [Example 25-1, (2R,4S)-5-Biphenyl-4-yl-2-hydroxy-5-methyl-4-[(1H-[1,2,3]triazole-4-carbonyl)-amino]-hexanoic acid], the Ki is 12.6 to 100 nM.
Same read-out and setting: in the case of `CC(C)(c1ccc(-c2ccccc2)cc1)[C@H](C[C@@H](O)C(=O)O)NC(=O)c1cn(O)nn1` [Example 25-2, (2R,4S)-5-Biphenyl-4-yl-2-hydroxy-4-[(1-hydroxy-1H-[1,2,3]triazole-4-carbonyl)-amino]-5-methyl-hexanoic acid] it was 1.26 to 10 nM.
Turning to `CC(C)(c1ccc(-c2ccccc2)cc1)[C@H](C[C@@H](O)C(=O)O)NC(=O)c1cc(O)no1` [Example 25-3, (2R,4S)-5-Biphenyl-4-yl-2-hydroxy-4-[(3-hydroxy-isoxazole-5-carbonyl)-amino]-5-methyl-hexanoic acid], the pKi is on record as no less than 9.0.
